The values that follow come from patent publication US4762706A, “Peptide antibodies and their use in detecting oncogene products” (priority 1984, dated 1988).

The target of this experiment is T1, v-Ki-ras p21 protein (serine at position 12) (Kirsten murine sarcoma virus, UniProt P01117).
T1 construct: made in house; host or cells: E. coli (plasmid pINIII-ras, a gift; lac promoter, IPTG induction)
In words: Inhibition by nucleotide of anti-p21ser antibody binding to p21 protein (immunoprecipitation under mild denaturation conditions). As to conditions: high concentrations (10 mM) of nucleotide. From the text: In this example the antibody was used to immunoprecipitate a form of p21 protein which is known to contain serine at position 12. This protein is a E. coli expressing v-Ki-ras p21 protein (produced using a plasmid pINIII-ras which was constructed by and was a gift from M. Inouge of SUNY at Stony Brook, New York in which transcription was directed by the lac promoter--see Masui, Y. et al., in Experimental Manipulation of Gene Expression, M. Inogue, ed., Academic Press, N.Y., pp 15-32 (1983). Expression of this protein was induced by treatment of the cultures with 2 mM isopropylthiogalactoside (IPTG). Cell pellets were resuspended in 50 mM glucose, 25 mM Tris.HCl pH 8.0, 10 mM EDTA, 2 mg/ml lysozyme, and 0.01% aprotinin, and were then incubated for 30 minutes at 4° C. Triton X-100 was added to 1% concentration for 5 additional minutes. Following a 10-minute 15,000 xg spin, the supernatant was spun for an additional 2 hours at 150,000 xg to prepare the cleared lysate. One hundred-μl samples of the cleared cell lysate were incubated with 40 μCi ^32 P gamma-labeled guanosine triphosphate (GTP) for 30 minutes at 37° C. […] Immune complexes were washed with 0.5% NP40, 1M LiCl, 50 mM Tris.HCl, pH 8.0, 120 mM NaCl, and analyzed by SDS-PAGE. […]

T1 sequence (P01117 whole entry): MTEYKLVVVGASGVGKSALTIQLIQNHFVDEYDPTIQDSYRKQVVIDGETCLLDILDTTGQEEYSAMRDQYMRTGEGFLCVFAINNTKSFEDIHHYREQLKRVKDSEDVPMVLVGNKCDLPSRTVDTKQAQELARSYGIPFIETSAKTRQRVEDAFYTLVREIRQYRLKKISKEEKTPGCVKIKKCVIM

As for `Nc1nc2c(ncn2[C@@H]2O[C@H](COP(=O)(O)OP(=O)(O)OP(=O)(O)O)[C@@H](O)[C@H]2O)c(=O)[nH]1` [GTP, guanosine triphosphate], the “inhibition of the binding of anti-p21ser antibodies to p21 protein” value is reported as “substantially inhibit”.
